Where a name gives a salt, the structure may show the parent alone.
Each compound was assayed against T1, hTRPA1 (Homo sapiens, UniProt O75762) (assay: ChanTest hTRPA1-CHO calcium flux dose response assay (FLIPR, cinnamaldehyde agonist)). Details: CHO-K1 Tet-On hTRPA1 cells, 100 uM cinnamaldehyde agonist, 30 min compound preincubation.
T1 construct: host or cells: CHO-K1 Tet-On HOMSA TRPA1 Clone 20 (Chinese Hamster Ovary cells, inducible expression)
Type: cell-based
Description: IC50 Determination of Exemplified Compounds Dose Response Assay: ChanTest hTRPA1-CHO Stably Transfected Cell Line
CHO-K1 Tet-On HOMSA TRPA1 Clone 20
0.40 mg/ml Zeocin • The cell line doubling rate was ˜15 hours. […] Experiments were run at 24 hours post induction.
Plating Conditions CHOK1/TRPA1 Cells: • Harvested cells with 0.025% trypsin/EDTA. • Resuspended cells in growth media without selection antibiotics. • Measured cell density and diluted to 2.4×10^5 cells/ml in media containing 1 ug/ml Doxycycline Plate 25 ul/well into 384 well black/clear tissue culture-treated plates. • Incubated overnight at 37° C.
• Replacement Buffer: Hank's Balanced Salt Solution, 20 mM HEPES along with 0.005% BSA and 2× Probenecid • Dye Loading Buffer: Cal-3 NW Calcium dye was prepared by dissolving the contents of one vial with 500 ml Hank's Balanced Salt Solution containing 20 mM HEPES.
Control Compounds for CHOK1/TRPA1 Cells: • AP-18, stock 10 mM, prepare 3.5× compound dilution in a Compound Buffer (HBSS/20 mM HEPES/0.005% BSA)−final concentration 10 uM.
Preparation of Cinnamaldehyde (Agonist Addition): • FW=132.16 • Specific gravity=1.046 gm/cc • 1.32 gm/1.046 gm/cc=1.26 ml of stock • Add 1.74 ml DMSO=3.3 M stock • Working solution 4.5× (final 100 uM in Compound Buffer: HBSS/20 mM HEPES/0.005% BSA)
Compounds dilutions were prepared from 5 or 10 mM stock (100% DMSO): • Adjustments of volumes and concentrations were made at time of titration to reflect desired final assay concentrations. • Compounds were tested at either 20 μM three folds dilution 11 steps out or 30 μM two folds dilution 11 steps out. • 3 μl of diluted compound were transferred into Weidmann 384-well plate in duplicates side-by-side. • Compound plates were resuspended with 100 ul of HBSS/20 mM HEPES/0.005% BSA buffer (Compound Buffer): • column 1A-H: buffer/DMSO (bk) • column 2A-H: AP-18 (control antagonist for CHOK1 TRPA1 cells) • column 1I-P: ATP (control for CHOK1 teton cells) • column 2I-P: 2APB (control antagonist for CHOK1/TRPM8 cells).
Growth media was removed from the cell plates (20 ul) and 20 ul of the Replacement Buffer was added followed by addition of 25 ul of diluted dye. All three steps were performed using a Plate Washer BioTek 407. The plates were then incubated for 30′ at RT.
After incubation, both the cell and compound plates were brought to the FLIPR and 20 ul of the diluted compounds/antagonist/bk were transferred to the cell plates by the FLIPR. Plates were then incubated for 30′ at room temperature. After 30′ incubation, plates were returned to the FLIPR and 20 ul of 4.5× Cinnamaldehyde was added to the cell plates. During the compound addition as well as agonist addition, fluorescence readings were taken simultaneously from all 384 wells of the cell plate every 1.5 seconds. Five readings were taken to establish a stable baseline, then 20 ul of sample was rapidly (30 ul/sec) and simultaneously added to each well of the cell plate. The fluorescence was continuously monitored before, during and after sample/agonist addition for a total elapsed time of 100 seconds (compound addition) and 120 seconds (agonist addition). Responses (increase in peak fluorescence) in each well following agonist addition was determined. The initial fluorescence reading from each well, prior to ligand stimulation, was used a zero baseline value for the data from that well.

T1 sequence (O75762 whole entry): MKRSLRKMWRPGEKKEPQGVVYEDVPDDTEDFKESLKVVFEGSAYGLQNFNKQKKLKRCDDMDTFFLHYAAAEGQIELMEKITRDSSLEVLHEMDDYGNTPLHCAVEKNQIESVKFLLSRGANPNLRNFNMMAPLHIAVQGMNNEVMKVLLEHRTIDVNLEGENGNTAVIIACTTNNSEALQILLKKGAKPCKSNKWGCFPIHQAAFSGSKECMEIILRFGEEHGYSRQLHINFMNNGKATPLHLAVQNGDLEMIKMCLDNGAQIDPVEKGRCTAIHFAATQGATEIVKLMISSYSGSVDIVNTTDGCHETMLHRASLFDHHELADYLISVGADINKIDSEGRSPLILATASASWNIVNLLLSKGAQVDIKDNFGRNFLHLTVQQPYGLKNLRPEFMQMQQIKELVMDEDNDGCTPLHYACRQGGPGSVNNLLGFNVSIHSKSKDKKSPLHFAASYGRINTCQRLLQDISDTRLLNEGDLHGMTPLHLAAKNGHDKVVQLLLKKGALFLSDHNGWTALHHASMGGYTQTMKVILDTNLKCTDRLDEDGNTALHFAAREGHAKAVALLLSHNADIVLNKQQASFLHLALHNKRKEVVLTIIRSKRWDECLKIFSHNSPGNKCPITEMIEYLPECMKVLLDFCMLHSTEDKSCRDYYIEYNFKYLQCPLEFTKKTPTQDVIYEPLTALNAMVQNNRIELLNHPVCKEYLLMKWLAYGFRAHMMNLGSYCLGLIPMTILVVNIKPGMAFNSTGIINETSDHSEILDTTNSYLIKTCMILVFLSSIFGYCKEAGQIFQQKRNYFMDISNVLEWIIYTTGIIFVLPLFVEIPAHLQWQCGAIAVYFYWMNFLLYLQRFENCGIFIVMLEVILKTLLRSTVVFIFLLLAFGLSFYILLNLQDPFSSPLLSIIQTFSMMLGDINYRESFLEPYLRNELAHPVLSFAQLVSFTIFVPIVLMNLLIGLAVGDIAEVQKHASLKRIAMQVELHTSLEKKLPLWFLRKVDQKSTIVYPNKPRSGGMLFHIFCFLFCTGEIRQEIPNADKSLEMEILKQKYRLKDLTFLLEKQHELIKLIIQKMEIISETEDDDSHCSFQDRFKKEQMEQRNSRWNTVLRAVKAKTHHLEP

IC50	SMILES
11200 nM	FC(F)(F)c1cccc(C2CCCN(CC(Cc3ncc(-c4ccccc4)[nH]3)C(F)(F)F)C2)c1 (stereo not drawn) [Example 5, 3-(3-Trifluoromethyl-phenyl)-1-[3,3,3-trifluoro-2-(5-phenyl-1H-imidazol-2-ylmethyl)-propyl]-piperidine hydrochloride]
30000 nM	FC(F)(F)c1cccc(C2CCCN(CC(Cc3nnc(-c4ccc(Cl)cn4)o3)C(F)(F)F)C2)c1 (stereo not drawn) [Example 11, 5-Chloro-2-(5-{3,3,3-trifluoro-2-[3-(3-trifluoromethyl-phenyl)-piperidin-1-ylmethyl]-propyl}-[1,3,4]oxadiazol-2-yl)-pyridine hydrochloride]
2660 nM	FC(F)(F)c1cccc(C2CCCN(CC(Cc3nc(-c4ccc(Cl)cc4)no3)C(F)(F)F)C2)c1 (mixture of isomers) [Example 14, 1-{2-[3-(4-Chlorophenyl)-[1,2,4]oxadiazol-5-ylmethyl]-3,3,3-trifluoro-propyl}-3-(3-trifluoromethyl-phenyl)-piperidine hydrochloride]
228 nM	FC(F)(F)c1cccc(C2CN(CC(Cc3nnc(-c4ccc(Cl)cc4)o3)C(F)(F)F)CCO2)c1 (stereo not drawn) [Example 16, 4-{2-[5-(4-Chlorophenyl)-[1,3,4]oxadiazol-2-ylmethyl]-3,3,3-trifluoropropyl}-2-(3-trifluoromethyl-phenyl)-morpholine hydrochloride]
116 nM	Fc1ccc(-c2nnc(CC(CN3CCCC(c4cccc(C(F)(F)F)c4)C3)C(F)(F)F)o2)cc1 (stereo not drawn) [Example 8, 1-{3,3,3-Trifluoro-2-[5-(4-fluorophenyl)-[1,3,4]oxadiazol-2-ylmethyl]-propyl}-3-(3-trifluoromethyl-phenyl)-piperidine hydrochloride]
6050 nM	Fc1ccc(-c2cnc(CC(CN3CCCC(c4cccc(C(F)(F)F)c4)C3)C(F)(F)F)[nH]2)cc1 (stereo not drawn) [Example 7, 1-{3,3,3-Trifluoro-2-[5-(4-fluoro-phenyl)-1H-imidazol-2-ylmethyl]-propyl}-3-(3-trifluoromethyl-phenyl)-piperidine hydrochloride]
3700 nM	FC(F)(F)c1cccc(C2CCCN(CC(Cc3ncc(-c4ccc(Cl)cc4)[nH]3)C(F)(F)F)C2)c1 (stereo not drawn) [Example 2, 1-{2-[5-(4-Chlorophenyl)-1H-imidazol-2-ylmethyl]-3,3,3-trifluoro-propyl}-3-(3-trifluoromethyl-phenyl)piperidine hydrochloride]
318 nM	Fc1ccc(-c2nc(CC(CN3CCCC(c4cccc(C(F)(F)F)c4)C3)C(F)(F)F)no2)cc1 (stereo not drawn) [Example 15, 1-{3,3,3-Trifluoro-2-[5-(4-fluoro-phenyl)-[1,2,4]oxadiazol-3-ylmethyl]-propyl}-3-(3-trifluoromethyl-phenyl)-piperidine hydrochloride]
9110 nM	FC(F)(F)c1cccc(C2CCCN(CC(Cc3nnc(-c4cccc(Cl)c4)o3)C(F)(F)F)C2)c1 (stereo not drawn) [Example 9, 1-{2-[5-(3-Chloro-phenyl)-[1,3,4]oxadiazol-2-ylmethyl]-3,3,3-trifluoro-propyl}-3-(3-trifluoromethyl-phenyl)-piperidine hydrochloride]
62.1 nM	Fc1ccc(-c2nnc(CC(CN3CCOC(c4ccc(C(F)(F)F)cc4)C3)C(F)(F)F)o2)cc1 (stereo not drawn) [Example 17, 4-{3,3,3-Trifluoro-2-[5-(4-fluoro-phenyl)-[1,3,4]oxadiazol-2-ylmethyl]-propyl}-2-(4-trifluoromethyl-phenyl)-morpholine hydrochloride]
7270 nM	FC(F)(F)c1cccc(C2CCCN(CC(Cc3ncc(-c4ccc(Cl)cc4)o3)C(F)(F)F)C2)c1 (stereo not drawn) [Example 13, 1-{2-[5-(4-Chloro-phenyl)-oxazol-2-ylmethyl]-3,3,3-trifluoro-propyl}-3-(3-trifluoromethyl-phenyl)-piperidine hydrochloride]
12300 nM	FC(F)(F)c1cccc(C2CCCN(CC(Cc3nc4ccc(Cl)cc4o3)C(F)(F)F)C2)c1 (stereo not drawn) [Example 4, 6-Chloro-2-{3,3,3-trifluoro-2-[3-(3-trifluoromethyl-phenyl)-piperidin-1-ylmethyl]-propyl}-benzooxazole hydrochloride]
2400 nM	Cc1ccc(-c2nnc(CC(CN3CCCC(c4cccc(C(F)(F)F)c4)C3)C(F)(F)F)o2)cn1 (stereo not drawn) [Example 10, 2-Methyl-5-(5-{3,3,3-trifluoro-2-[3-(3-trifluoromethyl-phenyl)-piperidin-1-ylmethyl]-propyl}-[1,3,4]oxadiazol-2-yl)-pyridine]
267 nM	FC(F)(F)c1ccc(C2CN(CC(Cc3nnc(-c4ccc(Cl)cc4)o3)C(F)(F)F)CCO2)cc1 (stereo not drawn) [Example 18, 4-{2-[5-(4-Chloro-phenyl)-[1,3,4]oxadiazol-2-ylmethyl]-3,3,3-trifluoro-propyl}-2-(4-trifluoromethyl-phenyl)-morpholinehydrochloride]
6720 nM	FC(F)(F)c1cccc(C2CCCN(CC(Cc3nc4cc(Cl)ccc4[nH]3)C(F)(F)F)C2)c1 (stereo not drawn) [Example 1, 5-Chloro-2-{3,3,3-trifluoro-2-[3-(3-trifluoromethyl-phenyl)-piperidin-1-ylmethyl]-propyl}-1H-benzoimidazole hydrochloride]
702 nM	FC(F)(F)c1cccc(C2CCCN(CC(Cc3nnc(-c4ccc(Cl)cc4)o3)C(F)(F)F)C2)c1 (stereo not drawn) [Example 3, 1-{2-[5-(4-Chloro-phenyl)-[1,3,4]oxadiazol-2-ylmethyl]-3,3,3-trifluoro-propyl}-3-(3-trifluoromethyl-phenyl)-piperidine hydrochloride]
2260 nM	FC(F)(F)c1cccc(C2CCCN(CC(Cc3ncc(-c4cccc(Cl)c4)[nH]3)C(F)(F)F)C2)c1 (stereo not drawn) [Example 6, 1-{2-[5-(3-Chlorophenyl)-1H-imidazol-2-ylmethyl]-3,3,3-trifluoro-propyl}-3-(3-trifluoromethyl-phenyl)piperidine hydrochloride]
112 nM	Fc1ccc(-c2nnc(CC(CN3CCOC(c4cccc(C(F)(F)F)c4)C3)C(F)(F)F)o2)cc1 (stereo not drawn) [Example 12, 4-{3,3,3-Trifluoro-2-[5-(4-fluoro-phenyl)-[1,3,4]oxadiazol-2-ylmethyl]-propyl}-2-(3-trifluoromethyl-phenyl)-morpholine hydrochloride]
